We go through three molecules from ChEMBL document CHEMBL1142788, “Synthesis and antibacterial activity of alkyl derivatives of the glycopeptide antibiotic A40926 and their amides” (2005).

Molecules are shown by their SMILES. In brackets after ≈: the same amount, converted by molar mass. Bounds are passed on as bounds.

Test [1] has as its system Enterococcus faecalis. Briefly: Minimum inhibitory concentration against vancomycin-sensitive Enterococcus faecalis in the presence of 30% bovine serum(n=3) (range = 0.25-1mg/l). It is filed as functional.
Test [2] has as its system Staphylococcus epidermidis. The test can be described thus: Minimum inhibitory concentration against methicillin-sensitive Staphylococcus epidermidis in the presence of 30% bovine serum. It is filed as functional.
Test [3] has as its system Enterococcus faecium. Briefly: Minimum inhibitory concentration against vancomycin-sensitive Enterococcus faecium in the presence of 30% bovine serum(n=1). It is filed as functional.
Test [4] concerns Staphylococcus epidermidis. Briefly: Minimum inhibitory concentration against methicillin-resistant Staphylococcus epidermidis in the presence of 30% bovine serum. The format is functional.
In test [5] the test system is Staphylococcus aureus. The test can be described thus: Minimum inhibitory concentration against methicillin-resistant Staphylococcus aureus.
Test [6] has as its system Staphylococcus haemolyticus. The test can be described thus: Minimum inhibitory concentration against Staphylococcus haemolyticus in the presence of 30% bovine serum. The format is functional.
For test [7], the system named is Staphylococcus aureus. The test can be described thus: Minimum inhibitory concentration against methicillin-sensitive Staphylococcus aureus without serum.
The test system of test [8] is Enterococcus faecium. The test can be described thus: Minimum inhibitory concentration against vancomycin-A Enterococcus faecium in the presence of 30% bovine serum (n=1) (range = 2>128mg/l). It is filed as functional.
For test [9], the system named is Enterococcus faecalis. The test can be described thus: Minimum inhibitory concentration against vancomycin-A Enterococcus faecalis in the presence of 30% bovine serum (n=4). It is filed as functional.
Test [10] relates to Enterococcus faecalis. Briefly: Minimum inhibitory concentration against vancomycin-A Enterococcus faecalis in the presence of 30% bovine serum(n=4) (range = 0.5-64mg/L). The format is functional.
Test [11] has as its system Enterococcus faecalis. Briefly: Minimum inhibitory concentration against vancomycin-sensitive Enterococcus faecalis in the presence of 30% bovine serum (n=3) (range = <0.125-0.25mg/l). It is filed as functional.
The test system of test [12] is Enterococcus faecium. The test can be described thus: Minimum inhibitory concentration against vancomycin-A Enterococcus faecium in the presence of 30% bovine serum (n=1) (range = 0.25-32mg/l). It is filed as functional.
Test [13] deals with Staphylococcus aureus. The test can be described thus: Minimum inhibitory concentration against methicillin-sensitive Staphylococcus aureus.
The test system of test [14] is Enterococcus faecium. The test can be described thus: Minimum inhibitory concentration against vancomycin-A Enterococcus faecium in the presence of 30% bovine serum (n=1) (range = 4-8mg/L). The format is functional.
Test [15] deals with Enterococcus faecalis. Briefly: Minimum inhibitory concentration against vancomycin-sensitive Enterococcus faecalis in the presence of 30% bovine serum (n=3). It is filed as functional.

In the case of `CN(Cc1ccc(C(=O)Oc2ccccc2)cc1)[C@H]1C(=O)N[C@@H]2Cc3ccc(cc3)Oc3cc4cc(c3O[C@@H]3OC(C(=O)O)C(O)[C@H](O)C3NCc3ccc(C(=O)Oc5ccccc5)cc3)Oc3ccc(cc3Cl)[C@@H](O)C3NC(=O)[C@H](NC(=O)[C@@H]4NC(=O)[C@@H](NC2=O)c2cc(cc(O)c2Cl)Oc2cc1ccc2O)c1ccc(O)c(c1)-c1c(O[C@H]2O[C@H](CO)[C@@H](O)[C@H](O)[C@@H]2O)cc(O)cc1[C@@H](C(=O)O)NC3=O` (stereo not given in full), the MIC is 1 mg/L with Enterococcus faecalis [1]; 4 mg/L in test [2]; 1 mg/L in the test with Enterococcus faecium [3]; 16 mg/L in [4]; 2 mg/L (≈ 1.01 µM) with Staphylococcus aureus [5]; 64 mg/L in test [6]. Also, the values for the MIC in the test on Staphylococcus aureus [7], in the test on Enterococcus faecium [8] and with Enterococcus faecalis [9] were 2 mg/L (≈ 1.01 µM), over 128 mg/L and 4 mg/L, respectively.
`CN(C)CCCNC(=O)C1O[C@@H](Oc2c3cc4cc2Oc2ccc(cc2Cl)[C@@H](O)C2NC(=O)[C@H](NC(=O)[C@@H]4NC(=O)[C@H]4NC(=O)[C@@H](Cc5ccc(cc5)O3)NC(=O)[C@H](N(C)Cc3ccc5ccccc5c3)c3ccc(O)c(c3)Oc3cc(O)c(Cl)c4c3)c3ccc(O)c(c3)-c3c(O[C@H]4O[C@H](CO)[C@@H](O)[C@H](O)[C@@H]4O)cc(O)cc3[C@@H](C(=O)NCCCN(C)C)NC2=O)C(NCc2ccc3ccccc3c2)[C@@H](O)C1O` (stereo not given in full): the MIC in the test with Enterococcus faecalis [10] was 64 mg/L; in test [2], under 0.125 mg/L; in the test on Enterococcus faecium [3], 0.25 mg/L; in the test with Enterococcus faecalis [11], under 0.25 mg/L; in test [4], 2 mg/L; in the test on Enterococcus faecium [12], over 32 mg/L. Besides, the figures for the MIC (in the test with Staphylococcus aureus [13]; in the test on Staphylococcus aureus [5]; in test [6]) were 1 mg/L (≈ 0.5 µM), 2 mg/L (≈ 1 µM) and 1 mg/L, respectively.
As for `CCCCCCCCCCc1ccc(CNC2[C@H](Oc3c4cc5cc3Oc3ccc(cc3Cl)[C@@H](O)C3NC(=O)[C@H](NC(=O)[C@@H]5NC(=O)[C@H]5NC(=O)[C@@H](Cc6ccc(cc6)O4)NC(=O)[C@H](NC)c4ccc(O)c(c4)Oc4cc(O)c(Cl)c5c4)c4ccc(O)c(c4)-c4c(O[C@H]5O[C@H](CO)[C@@H](O)[C@H](O)[C@@H]5O)cc(O)cc4[C@@H](C(=O)NCCCN(C)C)NC3=O)OC(C(=O)NCCCN(C)C)C(O)[C@@H]2O)cc1` (stereo not given in full), the MIC in the test on Enterococcus faecium [14] came to 8 mg/L; in test [2], 1 mg/L; in the test on Enterococcus faecium [3] it was 0.25 mg/L; against Staphylococcus aureus [5], 2 mg/L (≈ 1.03 µM); with Enterococcus faecalis [15], 0.25 mg/L; in [6], 2 mg/L. Further, the MIC in the test on Enterococcus faecalis [9] came out at 4 mg/L.
